Values quoted from earlier work as cited in patent US20210322558A1, “PHENYLEPHRINE RESINATE PARTICLES AND USE THEREOF IN PHARMACEUTICAL FORMULATIONS” (JOHNSON & JOHNSON CONSUMER INC., priority 2013, published 2021).

Legend:
[1] = 30 mg dose administered orally over eight hours

Structure (SMILES) | metabolized to m-hydroxy-phenylglycol-sulfate, % of the dose [1] [%] | metabolized to m-hydroxymandelic acid, % of the dose [1] [%] | metabolized to phenylephrine-glucuronide, % of the dose [1] [%] | metabolized to phenylephrine-sulfate, % of the dose [1] [%] | fraction of a therapeutic dose excreted unchanged in the urine
CNC[C@H](O)c1cccc(O)c1.Cl [phenylephrine, (R)-1-(3-hydroxyphenyl)-2-methylaminoethanol] | 6 | 30 | 12 | 47 | 
CC(=O)Nc1ccc(O)cc1 [acetaminophen] |  |  |  |  | Less than 9%
